# The source made the active and inactive calls.
# Test system: not listed separately
# Assay: viability of uninfected HEp-2 cells – cell-based, HTS, cytotoxicity control for RSV inhibitor project, dose response (AID 2410)
# Type: functional
# Conditions: human respiratory syncytial virus
row,Compound,CC50
1,O=[N+]([O-])c1ccc(N2CCc3ccccc3C2)nc1,19.6 µM (active)
2,COc1ccccc1N1CCN(C(=O)c2sc3nc(C)nc(N4CCN(c5ccccn5)CC4)c3c2C)CC1,20 µM (active)
3,O=S(=O)(c1ccccc1)N1CCCC(c2nc(O)c3nnn(Cc4cccc(Cl)c4)c3n2)C1 (centres undefined),13.1 µM (active)
4,CCCN1C(=O)/C(=C/c2c[nH]nc2-c2ccccc2)SC1=S,20.7 µM (active)
5,O=C(Nc1ccc(Nc2ccccc2)cc1)c1ccc(Cl)c([N+](=O)[O-])c1,18.7 µM (active)
6,Clc1c(-c2nnc3n2CCC3)sc2ccccc12,30.9 µM (active)
7,O=C(CN1CCN(c2ccc(F)cc2)CC1)Nc1cccc(C(F)(F)F)c1,29.2 µM (active)
8,COC(=O)c1cc(NC(=O)c2cc(-c3ccc(OC)cc3)oc2C(F)(F)F)ccc1N1CCOCC1,13.4 µM (active)
9,Cc1cc2c(cc1S(=O)(=O)N1CCc3ccccc31)NC(=O)CO2,13.8 µM (active)

# Biological target: Cytochrome P450 2C9 (Homo sapiens, UniProt P11712)
# Assay: not given
# Conditions: not given
# Cytochrome P450 2C9, sequence (P11712 whole entry): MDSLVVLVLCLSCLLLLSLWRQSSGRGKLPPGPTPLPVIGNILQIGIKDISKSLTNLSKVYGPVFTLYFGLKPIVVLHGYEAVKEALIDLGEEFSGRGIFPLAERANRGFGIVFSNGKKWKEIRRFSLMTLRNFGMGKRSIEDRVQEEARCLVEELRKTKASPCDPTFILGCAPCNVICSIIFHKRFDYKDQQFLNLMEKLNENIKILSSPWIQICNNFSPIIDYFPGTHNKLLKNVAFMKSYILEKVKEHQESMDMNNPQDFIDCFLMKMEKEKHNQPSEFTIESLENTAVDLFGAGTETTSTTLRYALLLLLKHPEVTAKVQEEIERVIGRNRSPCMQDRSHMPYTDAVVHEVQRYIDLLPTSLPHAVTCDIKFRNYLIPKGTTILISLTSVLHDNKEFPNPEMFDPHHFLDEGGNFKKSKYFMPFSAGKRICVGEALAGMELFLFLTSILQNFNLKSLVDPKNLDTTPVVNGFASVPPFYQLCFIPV
row,Compound,AC50
1,CC1Cc2ccccc2N1C(=O)c1cc2c(=O)n3ccccc3nc2n1C (centres undefined),14.1 µM (inconclusive)

# Biological target: T1, Heat shock factor protein 1 (Mus musculus, UniProt P38532)
# T1 sequence (P38532 whole entry): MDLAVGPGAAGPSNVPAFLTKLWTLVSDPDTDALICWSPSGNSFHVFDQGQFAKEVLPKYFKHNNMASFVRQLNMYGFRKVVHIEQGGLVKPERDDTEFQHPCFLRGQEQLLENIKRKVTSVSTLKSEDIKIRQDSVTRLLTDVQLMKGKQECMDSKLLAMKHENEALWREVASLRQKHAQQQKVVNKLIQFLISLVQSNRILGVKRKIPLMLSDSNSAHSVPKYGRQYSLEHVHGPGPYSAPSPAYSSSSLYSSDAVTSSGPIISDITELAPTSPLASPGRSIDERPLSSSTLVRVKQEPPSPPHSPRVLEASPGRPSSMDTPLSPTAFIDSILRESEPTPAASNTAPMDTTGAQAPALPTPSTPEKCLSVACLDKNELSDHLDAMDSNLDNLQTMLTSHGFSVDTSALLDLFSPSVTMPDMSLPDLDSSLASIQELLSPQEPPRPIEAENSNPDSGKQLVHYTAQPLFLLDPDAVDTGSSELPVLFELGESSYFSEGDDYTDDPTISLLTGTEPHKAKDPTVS
# Assay: decrease of HSF1-responsive luciferase luminescence – cell-based, NIH3T3, dose retest, confirmation (AID 2382);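 further: NIH3T3 fibroblasts with HSF1-driven luciferase reporter stressed by proteasome inhibitor MG132; luminescence from HSF1-driven luciferase expression after 8 hours of MG132 stress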
# Type: functional
# Conditions: not given
row,Compound,EC50
1,COCCCNC(=O)c1cn(CC(C)C)c(=O)c2c1c1ccccc1n2C,> 195 µM (not active)
2,Cc1ccc(S(=O)(=O)NCCC(=O)N2CCN(S(=O)(=O)c3ccccc3)CC2)cc1C,> 195 µM (not active)
3,O=C1CCCN1CCC1CCN(C(=O)Nc2ccccc2)CC1,> 195 µM (not active)
4,CCN(CC)S(=O)(=O)c1cc(C(=O)Nc2cc(C)on2)ccc1Cl,> 195 µM (not active)
5,CC(C)c1ccc(NC(=O)CNC(=O)Cn2cnc3ccccc3c2=O)cc1,60.8 µM (active)
6,CCCN=C(S)NC1CC2CCCC(C1)N2Cc1ccc(F)cc1 (centres undefined),> 195 µM (not active)
7,COc1cc(NC(=O)c2cc(C)nc3ccccc23)cc(OC)c1,> 195 µM (not active)
8,COC(=O)c1c(C)[nH]c(C)c1-c1cccc([N+](=O)[O-])c1,> 195 µM (not active)
9,CC(Cc1ccccc1)C(=O)Nc1ccccc1 (centres undefined),> 195 µM (not active)
10,O=C[C@H](O)[C@@H](O)[C@H](O)CO [XYLOSE],> 195 µM (not active)

# Biological target: Cytochrome P450 2C19 (Homo sapiens, UniProt P33261)
# Assay: Cytochrome panel assay with activity outcomes. Panel member name: p450-cyp2c19 Compounds with AC50 equal or less than 10 uM are considered active
# Type: functional
# Conditions: read-out: AC50
# Cytochrome P450 2C19, sequence (P33261 whole entry): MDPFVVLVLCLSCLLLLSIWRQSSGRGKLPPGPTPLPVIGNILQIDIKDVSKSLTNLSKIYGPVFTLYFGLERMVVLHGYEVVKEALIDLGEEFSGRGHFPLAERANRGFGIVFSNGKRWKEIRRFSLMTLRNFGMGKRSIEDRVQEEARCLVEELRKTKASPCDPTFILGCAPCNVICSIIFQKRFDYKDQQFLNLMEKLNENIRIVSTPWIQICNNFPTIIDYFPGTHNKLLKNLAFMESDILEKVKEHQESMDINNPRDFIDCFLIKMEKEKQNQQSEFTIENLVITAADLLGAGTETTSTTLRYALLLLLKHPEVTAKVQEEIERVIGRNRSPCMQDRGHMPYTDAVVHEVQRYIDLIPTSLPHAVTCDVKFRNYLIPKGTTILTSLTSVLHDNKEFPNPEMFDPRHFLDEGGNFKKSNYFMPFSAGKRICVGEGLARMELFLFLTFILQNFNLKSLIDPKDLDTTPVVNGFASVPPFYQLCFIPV
row,Compound,AC50
1,CC1Cc2ccccc2N1C(=O)c1cc2c(=O)n3ccccc3nc2n1C (centres undefined),7.08 µM (inconclusive)

# Test system: H9c2;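 further: confirmatory concentration-response retest of ultra-high-throughput screening hits for modulation of myocardial damage; cell death induced by hydrogen peroxide oxidative stress; compound pretreatment for 60 min then peroxide exposure for 2 h; potency is for protecting the cells against peroxide damage rather than for killing them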
# Assay: cells
# Type: functional, cell-based
# Conditions: Rattus norvegicus, H9c2, Myocardium
row,Compound,IC50
1,O=C(CCc1nc(O)c2ccccc2n1)NCC(=O)Nc1ccc(F)c(F)c1,25.2 µM (active)
2,CN(C)C=O.COc1cc(/C=C/c2nc3ccccc3c(=O)n2-c2ccc(O)cc2)ccc1O,> 79 µM (inactive)
3,O=C(COC(=O)Cc1nnc(O)c2ccccc12)NNC(=O)c1ccc(Cl)cc1,> 79 µM (inactive)
4,COc1ccc(-c2cc(C(=O)N(C)Cc3ccccc3F)c3ccccc3n2)cc1OC,30.2 µM (inactive)
5,CCCCn1nc(NC(=O)c2cccs2)c2cc3cc(OC)ccc3nc21,> 79 µM (inactive)
6,CC1Cc2ccccc2N1C(=O)c1cc2c(=O)n3ccccc3nc2n1C (centres undefined),59.3 µM (inactive)
7,COc1ccc(-c2cc(C(=O)NNC(=O)c3csc(N4CCOCC4)n3)c3ccccc3n2)cc1,> 79 µM (inactive)
8,COC(=O)c1cc2ccc(OC)cc2c2cc(OC)c(OC)cc12,> 79 µM (inactive)
9,COc1cc(/C=N/NC(=O)c2cccnc2)ccc1OS(=O)(=O)c1cc(C)ccc1C,> 79 µM (inactive)

# Biological target: T2, Protein skinhead-1 (Caenorhabditis elegans, UniProt P34707)
# T2 sequence (P34707 whole entry): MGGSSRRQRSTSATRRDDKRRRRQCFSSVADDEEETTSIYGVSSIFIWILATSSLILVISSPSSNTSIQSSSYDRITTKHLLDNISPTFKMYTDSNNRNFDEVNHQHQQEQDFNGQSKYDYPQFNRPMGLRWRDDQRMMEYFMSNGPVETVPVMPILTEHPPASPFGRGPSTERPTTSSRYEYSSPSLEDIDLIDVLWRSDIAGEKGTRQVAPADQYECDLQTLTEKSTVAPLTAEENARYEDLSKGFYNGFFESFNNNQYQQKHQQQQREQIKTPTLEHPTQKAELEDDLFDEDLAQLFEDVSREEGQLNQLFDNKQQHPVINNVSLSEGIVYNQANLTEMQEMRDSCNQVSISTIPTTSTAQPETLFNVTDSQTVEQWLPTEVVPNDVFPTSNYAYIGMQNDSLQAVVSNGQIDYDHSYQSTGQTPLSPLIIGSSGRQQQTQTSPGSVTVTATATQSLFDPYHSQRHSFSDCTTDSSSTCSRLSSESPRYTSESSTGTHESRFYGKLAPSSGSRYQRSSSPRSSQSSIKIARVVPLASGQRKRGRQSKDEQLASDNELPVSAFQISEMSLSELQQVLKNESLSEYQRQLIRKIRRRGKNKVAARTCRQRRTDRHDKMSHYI
# Assay: not given
# Type: functional
# Conditions: not given
row,Compound,IC50
1,O=C(Nc1nc(SCc2ccc(F)cc2)ns1)c1ccco1,70.5 µM (inactive)
2,CCOC(=O)Nc1nc(-c2ccc(F)cc2F)cs1,64.9 µM (inactive)
3,COCCCNC(=O)c1cn(CC(C)C)c(=O)c2c1c1ccccc1n2C,> 100 µM (inactive)
4,O=C(Nc1ccc(Cl)cc1)C(c1ccccc1)N(CCO)CCO (centres undefined),> 100 µM (inactive)
5,Brc1ccc(-c2nc(-c3cccnc3)no2)o1,42.7 µM (active)
6,Oc1cc(-c2ccccc2Cl)c2c(n1)CCC2,> 100 µM (inactive)
7,Cc1cccc(C(=O)Nc2ccc(C(=O)/C=C/c3cccs3)cc2)c1,> 100 µM (inactive)
8,O=C1CN(C(=O)c2ccc(Br)o2)C(c2ccccc2)c2cc(Br)ccc2N1 (centres undefined),83.6 µM (inactive)
9,COCCNC(=O)c1ccc(-c2ccc(OC)cc2C)c2ccoc12,> 100 µM (inactive)
